Results published in ChEMBL document CHEMBL5058646 (2022).

Tests used:
[1] = biological target: Calcium/calmodulin-dependent protein kinase type II subunit beta (Homo sapiens) (UniProt Q13554); assay: CAMK2B SGC Tm panel (DSF); conditions: Compound concentration 20.0 uM
[2] = biological target: Myotonin-protein kinase (Homo sapiens) (UniProt Q09013); assay: DMPK1 SGC Tm panel (DSF); conditions: Compound concentration 20.0 uM
[3] = biological target: Ephrin type-A receptor 7 (Homo sapiens) (UniProt Q15375); assay: EPHA7 SGC Tm panel (DSF); conditions: Compound concentration 20.0 uM
[4] = biological target: Ephrin type-B receptor 3 (Homo sapiens) (UniProt P54753); assay: EPHB3 SGC Tm panel (DSF); conditions: Compound concentration 20.0 uM
Chain of Ephrin type-B receptor 3 (Homo sapiens) (P54753 whole entry): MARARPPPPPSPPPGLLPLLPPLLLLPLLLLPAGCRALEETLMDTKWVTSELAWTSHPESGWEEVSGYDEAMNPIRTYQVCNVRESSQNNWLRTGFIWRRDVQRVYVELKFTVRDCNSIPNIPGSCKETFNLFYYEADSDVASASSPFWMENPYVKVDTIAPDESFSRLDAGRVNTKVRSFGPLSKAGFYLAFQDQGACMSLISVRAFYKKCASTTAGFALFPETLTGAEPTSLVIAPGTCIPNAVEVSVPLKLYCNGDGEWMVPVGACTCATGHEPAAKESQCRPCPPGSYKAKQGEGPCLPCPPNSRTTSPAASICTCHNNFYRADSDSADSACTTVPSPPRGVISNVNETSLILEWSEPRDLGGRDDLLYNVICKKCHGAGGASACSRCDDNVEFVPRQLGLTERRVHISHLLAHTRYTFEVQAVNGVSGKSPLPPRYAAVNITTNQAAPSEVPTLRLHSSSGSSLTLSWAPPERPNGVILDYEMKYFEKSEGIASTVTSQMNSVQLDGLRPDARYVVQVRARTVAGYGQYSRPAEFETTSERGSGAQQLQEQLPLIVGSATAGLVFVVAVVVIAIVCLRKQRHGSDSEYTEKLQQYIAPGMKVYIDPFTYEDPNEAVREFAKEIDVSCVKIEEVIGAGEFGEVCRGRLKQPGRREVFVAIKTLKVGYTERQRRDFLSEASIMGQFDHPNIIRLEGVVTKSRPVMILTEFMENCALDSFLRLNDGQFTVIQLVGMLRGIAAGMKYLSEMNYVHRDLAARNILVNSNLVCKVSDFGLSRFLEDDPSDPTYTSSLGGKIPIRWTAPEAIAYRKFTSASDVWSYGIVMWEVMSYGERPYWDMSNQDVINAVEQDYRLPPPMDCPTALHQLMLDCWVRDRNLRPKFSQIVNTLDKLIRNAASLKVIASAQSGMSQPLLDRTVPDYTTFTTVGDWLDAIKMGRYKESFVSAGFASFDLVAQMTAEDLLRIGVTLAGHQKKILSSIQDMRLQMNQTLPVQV

[5] = biological target: Tyrosine-protein kinase Fes/Fps (Homo sapiens) (UniProt P07332); assay: FES SGC Tm panel (DSF); conditions: Compound concentration 20.0 uM
[6] = biological target: Fibroblast growth factor receptor 1 (Homo sapiens) (UniProt P11362); assay: FGFR1 SGC Tm panel (DSF); conditions: Compound concentration 20.0 uM
[7] = biological target: Mitogen-activated protein kinase kinase kinase 5 (Homo sapiens) (UniProt Q99683); assay: MAP3K5 SGC Tm panel (DSF); conditions: Compound concentration 20.0 uM
[8] = biological target: Serine/threonine-protein kinase Nek1 (Homo sapiens) (UniProt Q96PY6); assay: NEK1 SGC Tm panel (DSF); conditions: Compound concentration 20.0 uM
Chain of Serine/threonine-protein kinase Nek1 (Homo sapiens) (Q96PY6 whole entry): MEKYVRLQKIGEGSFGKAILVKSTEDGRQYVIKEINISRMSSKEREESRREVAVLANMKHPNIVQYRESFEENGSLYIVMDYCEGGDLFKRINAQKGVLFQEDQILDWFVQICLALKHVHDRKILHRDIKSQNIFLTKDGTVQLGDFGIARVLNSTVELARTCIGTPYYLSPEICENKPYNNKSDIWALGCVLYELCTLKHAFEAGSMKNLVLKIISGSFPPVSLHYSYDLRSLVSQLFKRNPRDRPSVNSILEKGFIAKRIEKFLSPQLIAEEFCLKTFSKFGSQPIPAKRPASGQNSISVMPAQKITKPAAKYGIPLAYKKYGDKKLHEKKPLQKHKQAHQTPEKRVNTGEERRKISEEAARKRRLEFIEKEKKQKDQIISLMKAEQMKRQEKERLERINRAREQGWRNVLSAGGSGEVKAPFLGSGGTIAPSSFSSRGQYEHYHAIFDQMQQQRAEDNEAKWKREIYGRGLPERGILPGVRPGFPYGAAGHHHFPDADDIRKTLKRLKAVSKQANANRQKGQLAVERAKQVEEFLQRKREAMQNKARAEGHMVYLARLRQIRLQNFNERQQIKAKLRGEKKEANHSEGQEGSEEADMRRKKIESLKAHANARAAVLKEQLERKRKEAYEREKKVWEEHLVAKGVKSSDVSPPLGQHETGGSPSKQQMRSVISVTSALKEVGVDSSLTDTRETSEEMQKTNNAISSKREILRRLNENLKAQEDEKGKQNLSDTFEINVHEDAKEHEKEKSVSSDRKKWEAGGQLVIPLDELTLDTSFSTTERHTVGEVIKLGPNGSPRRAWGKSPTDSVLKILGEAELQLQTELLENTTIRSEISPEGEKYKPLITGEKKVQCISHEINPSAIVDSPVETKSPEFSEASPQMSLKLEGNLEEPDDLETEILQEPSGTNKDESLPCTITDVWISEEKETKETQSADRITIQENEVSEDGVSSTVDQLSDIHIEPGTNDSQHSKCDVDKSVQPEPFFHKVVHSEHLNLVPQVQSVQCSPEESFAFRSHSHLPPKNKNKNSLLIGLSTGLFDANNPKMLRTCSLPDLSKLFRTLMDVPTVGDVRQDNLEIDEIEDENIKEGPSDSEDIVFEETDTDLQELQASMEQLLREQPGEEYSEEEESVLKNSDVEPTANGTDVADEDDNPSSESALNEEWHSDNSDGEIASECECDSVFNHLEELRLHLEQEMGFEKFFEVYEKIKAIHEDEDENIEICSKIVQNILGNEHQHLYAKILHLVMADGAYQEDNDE

[9] = biological target: Serine/threonine-protein kinase 4 (Homo sapiens) (UniProt Q13043); assay: STK4 SGC Tm panel (DSF); conditions: Compound concentration 20.0 uM
Chain of Serine/threonine-protein kinase 4 (Homo sapiens) (Q13043 whole entry): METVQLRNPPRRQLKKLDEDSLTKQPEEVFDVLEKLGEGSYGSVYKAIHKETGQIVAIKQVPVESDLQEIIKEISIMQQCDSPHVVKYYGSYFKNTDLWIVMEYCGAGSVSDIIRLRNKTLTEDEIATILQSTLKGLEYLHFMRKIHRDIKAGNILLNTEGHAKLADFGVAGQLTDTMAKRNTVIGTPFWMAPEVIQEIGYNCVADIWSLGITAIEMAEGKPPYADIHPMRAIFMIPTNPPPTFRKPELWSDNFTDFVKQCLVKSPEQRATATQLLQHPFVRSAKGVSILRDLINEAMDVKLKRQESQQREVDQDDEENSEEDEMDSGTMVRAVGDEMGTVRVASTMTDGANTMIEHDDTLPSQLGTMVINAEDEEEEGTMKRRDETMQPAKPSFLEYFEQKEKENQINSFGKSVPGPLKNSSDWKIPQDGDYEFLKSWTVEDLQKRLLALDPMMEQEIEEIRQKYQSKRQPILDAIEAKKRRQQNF

[10] = biological target: 5-hydroxytryptamine receptor 5A (Homo sapiens) (UniProt P47898); conditions: Compound concentration 10.0 uM
[11] = biological target: D(2) dopamine receptor (Homo sapiens) (UniProt P14416); conditions: Compound concentration 10.0 uM
[12] = biological target: Histamine H3 receptor (Homo sapiens, UniProt Q9Y5N1); conditions: Compound concentration 10.0 uM
[13] = biological target: Muscarinic acetylcholine receptor M4 (Homo sapiens) (UniProt P08173); conditions: Compound concentration 10.0 uM
Chain of Muscarinic acetylcholine receptor M4 (Homo sapiens) (P08173 whole entry): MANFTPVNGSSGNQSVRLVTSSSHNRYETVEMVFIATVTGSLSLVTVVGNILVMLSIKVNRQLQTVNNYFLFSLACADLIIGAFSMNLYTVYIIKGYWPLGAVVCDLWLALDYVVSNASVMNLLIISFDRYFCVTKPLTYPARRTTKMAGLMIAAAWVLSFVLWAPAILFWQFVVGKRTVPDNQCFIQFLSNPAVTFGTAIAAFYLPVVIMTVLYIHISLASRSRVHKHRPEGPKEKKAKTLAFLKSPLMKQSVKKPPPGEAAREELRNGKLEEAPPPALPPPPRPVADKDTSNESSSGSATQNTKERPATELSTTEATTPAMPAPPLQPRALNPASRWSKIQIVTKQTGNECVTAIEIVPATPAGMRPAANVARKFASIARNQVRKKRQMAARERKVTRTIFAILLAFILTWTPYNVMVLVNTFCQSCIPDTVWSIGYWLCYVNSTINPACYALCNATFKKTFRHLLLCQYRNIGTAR

[14] = biological target: Alpha-1D adrenergic receptor (Homo sapiens) (UniProt P25100); conditions: Compound concentration 10.0 uM
[15] = biological target: Myoneurin (Homo sapiens) (UniProt Q9NPC7); conditions: SUD4, Compound concentration 1.0 uM
[16] = biological target: T1, Zinc finger and BTB domain-containing protein 11 (Homo sapiens) (UniProt O95625); conditions: SUD4, Compound concentration 1.0 uM
T1 sequence (whole entry): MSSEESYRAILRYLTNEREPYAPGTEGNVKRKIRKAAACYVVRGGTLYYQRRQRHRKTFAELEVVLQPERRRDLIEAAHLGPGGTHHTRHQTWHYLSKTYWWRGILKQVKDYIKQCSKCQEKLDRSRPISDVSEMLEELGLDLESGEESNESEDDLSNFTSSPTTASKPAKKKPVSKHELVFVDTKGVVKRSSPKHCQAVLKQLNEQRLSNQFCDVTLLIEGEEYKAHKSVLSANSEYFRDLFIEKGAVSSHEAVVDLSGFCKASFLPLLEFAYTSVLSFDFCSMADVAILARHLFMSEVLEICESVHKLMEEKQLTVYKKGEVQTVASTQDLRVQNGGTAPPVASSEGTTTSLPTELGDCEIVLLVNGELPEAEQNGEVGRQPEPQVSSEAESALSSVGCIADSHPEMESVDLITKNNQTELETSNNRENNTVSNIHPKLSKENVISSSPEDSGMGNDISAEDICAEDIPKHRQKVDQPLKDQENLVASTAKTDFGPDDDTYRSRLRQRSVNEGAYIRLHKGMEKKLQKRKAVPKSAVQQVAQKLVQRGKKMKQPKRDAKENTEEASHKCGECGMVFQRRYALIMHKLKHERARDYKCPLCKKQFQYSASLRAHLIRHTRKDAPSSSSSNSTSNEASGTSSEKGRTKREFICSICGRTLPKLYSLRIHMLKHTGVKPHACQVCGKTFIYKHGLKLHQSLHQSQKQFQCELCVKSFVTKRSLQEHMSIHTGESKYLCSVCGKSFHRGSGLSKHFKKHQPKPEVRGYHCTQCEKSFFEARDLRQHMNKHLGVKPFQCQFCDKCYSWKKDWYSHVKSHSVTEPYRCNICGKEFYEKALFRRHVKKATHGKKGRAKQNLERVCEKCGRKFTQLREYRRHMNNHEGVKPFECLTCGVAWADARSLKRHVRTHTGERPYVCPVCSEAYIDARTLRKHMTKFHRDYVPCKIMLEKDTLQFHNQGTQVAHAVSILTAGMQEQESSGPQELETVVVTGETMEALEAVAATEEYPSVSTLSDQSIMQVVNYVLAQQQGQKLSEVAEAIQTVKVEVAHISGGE

[17] = biological target: T2, Zinc finger and BTB domain-containing protein 1 (Homo sapiens) (UniProt Q9Y2K1); conditions: SUD4, Compound concentration 1.0 uM
T2 sequence (whole entry): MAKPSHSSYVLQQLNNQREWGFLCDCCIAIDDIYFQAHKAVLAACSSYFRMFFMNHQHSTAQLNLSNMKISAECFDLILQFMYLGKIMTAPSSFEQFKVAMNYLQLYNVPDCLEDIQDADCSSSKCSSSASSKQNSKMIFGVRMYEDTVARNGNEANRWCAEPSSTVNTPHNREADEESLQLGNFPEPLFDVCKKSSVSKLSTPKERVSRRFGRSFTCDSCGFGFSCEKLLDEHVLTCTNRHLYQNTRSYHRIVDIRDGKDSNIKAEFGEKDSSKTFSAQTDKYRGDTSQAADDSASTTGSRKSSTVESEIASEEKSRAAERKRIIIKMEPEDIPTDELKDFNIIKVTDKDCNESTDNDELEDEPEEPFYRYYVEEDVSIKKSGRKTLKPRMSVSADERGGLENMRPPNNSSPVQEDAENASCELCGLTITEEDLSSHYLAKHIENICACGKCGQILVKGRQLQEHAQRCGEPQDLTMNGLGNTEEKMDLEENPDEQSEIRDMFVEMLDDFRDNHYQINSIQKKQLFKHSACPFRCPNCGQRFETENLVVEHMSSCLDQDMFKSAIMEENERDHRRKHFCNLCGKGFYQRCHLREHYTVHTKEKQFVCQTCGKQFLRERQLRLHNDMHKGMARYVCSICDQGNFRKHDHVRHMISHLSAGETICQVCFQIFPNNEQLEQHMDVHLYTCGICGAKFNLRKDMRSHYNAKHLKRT

[18] = biological target: Serine/threonine-protein kinase MRCK alpha (Homo sapiens) (UniProt Q5VT25); assay: CDC42BPA SGC Tm panel (DSF); conditions: Compound concentration 20.0 uM
Chain of Serine/threonine-protein kinase MRCK alpha (Homo sapiens) (Q5VT25 whole entry, looked up): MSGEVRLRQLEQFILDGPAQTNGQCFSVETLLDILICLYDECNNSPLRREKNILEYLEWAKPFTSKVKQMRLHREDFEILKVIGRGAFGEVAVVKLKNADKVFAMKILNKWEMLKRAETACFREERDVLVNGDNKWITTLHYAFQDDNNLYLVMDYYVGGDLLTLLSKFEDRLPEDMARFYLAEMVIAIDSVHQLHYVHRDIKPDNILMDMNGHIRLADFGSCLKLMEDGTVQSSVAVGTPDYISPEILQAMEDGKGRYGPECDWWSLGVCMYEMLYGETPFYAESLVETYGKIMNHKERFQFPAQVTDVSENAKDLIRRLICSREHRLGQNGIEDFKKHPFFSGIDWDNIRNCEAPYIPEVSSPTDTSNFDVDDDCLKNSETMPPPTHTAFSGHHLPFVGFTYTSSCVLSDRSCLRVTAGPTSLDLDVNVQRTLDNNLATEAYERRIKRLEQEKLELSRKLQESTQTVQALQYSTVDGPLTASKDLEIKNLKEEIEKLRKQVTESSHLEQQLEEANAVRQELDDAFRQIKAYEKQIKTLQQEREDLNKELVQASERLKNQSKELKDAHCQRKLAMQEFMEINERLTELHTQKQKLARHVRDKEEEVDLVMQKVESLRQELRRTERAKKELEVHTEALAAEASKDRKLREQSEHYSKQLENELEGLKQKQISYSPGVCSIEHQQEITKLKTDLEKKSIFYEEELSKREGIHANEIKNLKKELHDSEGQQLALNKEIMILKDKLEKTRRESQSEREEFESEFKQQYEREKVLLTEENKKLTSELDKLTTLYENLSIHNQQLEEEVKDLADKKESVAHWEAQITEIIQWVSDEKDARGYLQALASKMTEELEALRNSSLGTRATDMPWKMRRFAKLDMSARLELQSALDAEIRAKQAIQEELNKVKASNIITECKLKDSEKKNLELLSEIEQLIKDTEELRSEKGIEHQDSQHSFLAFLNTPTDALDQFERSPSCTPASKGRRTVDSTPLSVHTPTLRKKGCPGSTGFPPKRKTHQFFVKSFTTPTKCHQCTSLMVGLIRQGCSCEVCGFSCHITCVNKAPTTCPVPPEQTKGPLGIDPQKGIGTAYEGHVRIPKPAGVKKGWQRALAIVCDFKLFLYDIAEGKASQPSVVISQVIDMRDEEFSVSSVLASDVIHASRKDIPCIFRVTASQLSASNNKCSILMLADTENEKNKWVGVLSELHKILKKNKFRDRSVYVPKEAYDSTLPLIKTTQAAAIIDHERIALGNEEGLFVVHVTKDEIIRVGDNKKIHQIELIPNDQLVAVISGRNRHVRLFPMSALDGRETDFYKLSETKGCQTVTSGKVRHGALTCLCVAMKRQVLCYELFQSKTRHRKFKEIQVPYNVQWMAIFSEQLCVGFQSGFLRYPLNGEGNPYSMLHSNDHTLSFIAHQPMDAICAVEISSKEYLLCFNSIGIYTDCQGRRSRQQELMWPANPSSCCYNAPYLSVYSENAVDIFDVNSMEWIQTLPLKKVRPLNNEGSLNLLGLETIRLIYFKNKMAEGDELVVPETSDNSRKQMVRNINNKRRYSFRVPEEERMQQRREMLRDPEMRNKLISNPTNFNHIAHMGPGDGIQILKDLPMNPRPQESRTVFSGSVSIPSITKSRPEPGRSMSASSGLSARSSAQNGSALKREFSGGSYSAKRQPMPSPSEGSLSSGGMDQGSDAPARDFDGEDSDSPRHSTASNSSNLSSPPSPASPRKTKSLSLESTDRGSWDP

Tm [1]: 47 °C
Tm [2]: 50 °C
Tm [3]: 48 °C
Tm [4]: 52 °C
Tm [5]: 44 °C
Tm [6]: 50 °C
Tm [7]: 40 °C
Tm [8]: 47 °C
Tm [9]: 46 °C
inhibition [10]: 13.2%
inhibition [11]: 20.8%
inhibition [12]: 60.7%
inhibition [13]: -2.86%
inhibition [14]: 16%
LogFC [15]: -0.135
LogFC [16]: -0.0504
LogFC [17]: -0.0255
Tm [18]: 43 °C
Compound: C[C@@H]1CN(c2ncc(Cl)c(Nc3ccc4c(c3)n(CCC(C)(C)O)c(=O)n4C)n2)C[C@H](C)C1(F)F
